In US10766882B2, “1,2-naphthoquinone based derivative and method of preparing the same” (YUNGJIN PHARM. CO., LTD., priority 2013, dated 2020):

Molecular target: NQO1 protein (Homo sapiens, UniProt P15559)
Experiment: NQO1 activity measurement (cytochrome C reduction)
Format: biochemical
Conditions: 5 ng NQO1 protein, 200 μM NADH, 77 μM cytochrome C, 37° C., absorbance 550 nm for 10 minutes
Procedure: An enzyme reaction solution included 25 mM Tris/HCl (pH 7.4), 0.14% bovine serum albumin, 200 μM NADH, 77 μM cytochrome C, and 5 ng of NQO1 protein. Enzymatic reaction was initiated by adding NADH and performed at 37° C. In this regard, a reaction rate was measured by observing absorbance, which was increased due to reduction of cytochrome C, at 550 nm for 10 minutes and NQO1 activity was represented as an amount of reduced cytochrome C [nmol cytochrome C reduced/min/μg protein].
Extinction coefficient for cytochrome C:21.1 mmol/L/cm=21.1 μmol/ml/cm

Sequence of NQO1 protein (P15559 whole entry, species assumed): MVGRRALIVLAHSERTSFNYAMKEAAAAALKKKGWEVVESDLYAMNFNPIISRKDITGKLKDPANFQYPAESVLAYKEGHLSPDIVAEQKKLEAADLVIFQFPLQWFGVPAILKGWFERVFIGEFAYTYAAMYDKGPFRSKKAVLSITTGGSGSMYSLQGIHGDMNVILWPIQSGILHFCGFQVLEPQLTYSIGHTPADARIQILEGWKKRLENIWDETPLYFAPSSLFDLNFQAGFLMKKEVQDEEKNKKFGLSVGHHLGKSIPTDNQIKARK

Structure (SMILES)	NQO1 activity (5 μM, [nmol cytochrome C reduced/min/μg protein])
CC(C)c1nc2c([nH]1)C(=O)C(=O)c1cc(NC(=O)C3CC3)ccc1-2 [Example 20]	6.4 nmol cytochrome C reduced/min/μg protein
Cc1cc(F)ccc1OCc1nc2c([nH]1)C(=O)C(=O)c1ccccc1-2 [Example 50]	100.6 nmol cytochrome C reduced/min/μg protein
CN(Cc1nc2c([nH]1)C(=O)C(=O)c1ccccc1-2)c1ccccc1 [Example 51, 2-((methyl (phenyl)amino)methyl)-3H-naphtho[2,1-d]imidazole-4,5-dione]	140.8 nmol cytochrome C reduced/min/μg protein
Cc1cc(F)ccc1N(Cc1nc2c([nH]1)C(=O)C(=O)c1ccccc1-2)C(=O)OC(C)(C)C [Example 52]	60.3 nmol cytochrome C reduced/min/μg protein
Cc1cc(F)ccc1NCc1nc2c([nH]1)C(=O)C(=O)c1ccccc1-2 [Example 53]	112.6 nmol cytochrome C reduced/min/μg protein
O=C1C(=O)c2[nH]c(CCc3ccc(F)cc3)nc2-c2ccccc21 [Example 54]	126.9 nmol cytochrome C reduced/min/μg protein
CN(C)Cc1nc2c([nH]1)C(=O)C(=O)c1ccccc1-2 [Example 59]	149.3 nmol cytochrome C reduced/min/μg protein
CC(c1nc2c([nH]1)C(=O)C(=O)c1ccccc1-2)N(C)C (stereo not drawn) [Example 60]	140.1 nmol cytochrome C reduced/min/μg protein
CC(c1nc2c([nH]1)C(=O)C(=O)c1ccccc1-2)N1CCOCC1 (stereo not drawn) [Example 61]	204.1 nmol cytochrome C reduced/min/μg protein
CN(C)c1nc2c([nH]1)C(=O)C(=O)c1ccccc1-2 [Example 62, 2-(dimethylamino)-3H-naphtho[2,1-d]imidazole-4,5-dione]	113.3 nmol cytochrome C reduced/min/μg protein
O=C1C(=O)c2[nH]c(N3CCCC3)nc2-c2ccccc21 [Example 63, 2-(pyrrolidin-1-yl)-3H-naphtho[2,1-d]imidazole-4,5-dione]	40.3 nmol cytochrome C reduced/min/μg protein
CC(C)c1nc2c(n1CCCl)C(=O)C(=O)c1ccccc1-2 [Example 64]	189.5 nmol cytochrome C reduced/min/μg protein
CC(c1nc2c([nH]1)C(=O)C(=O)c1ccccc1-2)N1CCCC1 (stereo not drawn) [Example 65]	93.5 nmol cytochrome C reduced/min/μg protein
CC(C)c1nc2c(n1CCN1CCOCC1)C(=O)C(=O)c1ccccc1-2 [Example 66]	56.0 nmol cytochrome C reduced/min/μg protein
O=C1C(=O)c2[nH]c(N3CCOCC3)nc2-c2ccccc21 [Example 67, 2-morpholino-3H-naphtho[2,1-d]imidazole-4,5-dione]	143.1 nmol cytochrome C reduced/min/μg protein
CC(C)c1nc2c(n1CCO)C(=O)C(=O)c1ccccc1-2 [Example 68, 3-(2-hydroxyethyl)-2-isopropyl-3H-naphtho[2,1-d]imidazole-4,5-dione]	143.0 nmol cytochrome C reduced/min/μg protein
CC(C)c1nc2c(n1Cn1c(C(C)C)nc3c1C(=O)C(=O)c1ccccc1-3)C(=O)C(=O)c1ccccc1-2 [Example 69]	160.5 nmol cytochrome C reduced/min/μg protein
O=C1C(=O)c2[nH]c(Cl)nc2-c2ccccc21 [Example 70, 2-chloro-3H-naphtho[2,1-d]imidazole-4,5-dione]	83.9 nmol cytochrome C reduced/min/μg protein
CCOc1nc2c([nH]1)C(=O)C(=O)c1ccccc1-2 [Example 71]	124.7 nmol cytochrome C reduced/min/μg protein
CC(C)c1nc2c(n1CCN(C)C)C(=O)C(=O)c1ccccc1-2 [Example 72]	51.0 nmol cytochrome C reduced/min/μg protein

Structure (SMILES)	NQO1 activity (5 μM, [nmol cytochrome C reduced/min/μg protein])
O=C1C(=O)c2[nH]c(C3CCCO3)nc2-c2ccccc21 (stereo not drawn) [Example 73]	180.8 nmol cytochrome C reduced/min/μg protein
CCOc1nc2c(n1C)C(=O)C(=O)c1ccccc1-2 [Example 74]	193.5 nmol cytochrome C reduced/min/μg protein
CN1CCN(c2nc3c([nH]2)C(=O)C(=O)c2ccccc2-3)CC1 [Example 75, 2-(4-methylpiperazin-1-yl)-3H-naphtho[2,1-d]imidazole-4,5-dione]	26.9 nmol cytochrome C reduced/min/μg protein
CC(C)(O)c1nc2c([nH]1)C(=O)C(=O)c1ccccc1-2 [Example 76]	183.5 nmol cytochrome C reduced/min/μg protein
CCC(CC)c1nc2c([nH]1)C(=O)C(=O)c1ccccc1-2 [Example 77]	223.3 nmol cytochrome C reduced/min/μg protein
O=C1C(=O)c2[nH]c(COc3ccc(F)cc3)nc2-c2ccccc21 [Example 79]	96.9 nmol cytochrome C reduced/min/μg protein
Cn1c(COc2ccc(F)cc2)nc2c1C(=O)C(=O)c1ccccc1-2 [Example 80]	162.6 nmol cytochrome C reduced/min/μg protein
CC(C)c1nc2c(n1Cc1ccncc1)C(=O)C(=O)c1ccccc1-2 [Example 81]	169.4 nmol cytochrome C reduced/min/μg protein
CC(F)(F)c1nc2c([nH]1)C(=O)C(=O)c1ccccc1-2 [Example 82]	70.2 nmol cytochrome C reduced/min/μg protein
CC(C)c1nc2c(n1Cc1cccnc1)C(=O)C(=O)c1ccccc1-2 [Example 83]	162.5 nmol cytochrome C reduced/min/μg protein
CC(C)c1nc2c(n1Cc1ccccn1)C(=O)C(=O)c1ccccc1-2 [Example 84]	172.0 nmol cytochrome C reduced/min/μg protein
CC(C)c1nc2c(n1C(C)C)C(=O)C(=O)c1ccccc1-2 [Example 85]	135.4 nmol cytochrome C reduced/min/μg protein
CCc1nc2c(n1CC)C(=O)C(=O)c1ccccc1-2 [Example 86]	220.0 nmol cytochrome C reduced/min/μg protein
O=C1C(=O)c2[nH]c(-c3cccnc3)nc2-c2ccccc21 [Example 87]	94.7 nmol cytochrome C reduced/min/μg protein
CCc1nc2c(n1CC)C(=O)C(=O)c1cc(F)ccc1-2 [Example 88]	187.4 nmol cytochrome C reduced/min/μg protein
CCc1nc2c(n1C(C)C)C(=O)C(=O)c1cc(F)ccc1-2 [Example 89]	145.0 nmol cytochrome C reduced/min/μg protein
CCc1nc2c(n1C(C)C)C(=O)C(=O)c1ccccc1-2 [Example 90]	241.3 nmol cytochrome C reduced/min/μg protein
CC(O)c1nc2c(n1C(C)C)C(=O)C(=O)c1ccccc1-2 (stereo not drawn) [Example 91]	206.9 nmol cytochrome C reduced/min/μg protein
O=C1C(=O)c2[nH]c(-c3nc4c([nH]3)C(=O)C(=O)c3ccccc3-4)nc2-c2ccccc21 [Example 92]	186.8 nmol cytochrome C reduced/min/μg protein
